Experimental findings from PubChem BioAssay (NCI) are described below.

Common to all, as to experiment: NCI tumour cell line growth inhibition, 48 h
Assay [1] concerns 786-0 renal.
Assay [2] concerns EKVX NSCLC.
The test system of assay [3] is HCT-15 colon.
For assay [4], the system named is MDA-MB-231 breast.
Assay [5] has as its system NCI-H522 lung.
Assay [6] concerns OVCAR-8 ovarian.
Assay [7] concerns SK-MEL-5 melanoma.
For assay [8], the system named is SK-OV-3 ovarian.
For assay [9], the system named is U251 CNS.
In assay [10] the test system is UACC-257 melanoma.
The subject of assay [11] is RXF 393 renal.

Structures are written as SMILES.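 Results reflect a 48-hour exposure of cells in 96-well plates to compound at five concentrations. TGI denotes the concentration required for complete inhibition of growth.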

Take `CN(C)CCn1c(=O)c2ccc(NCCN3CCNCC3)c3c(=O)c4ccccc4n(c1=O)c23`: the TGI in [1] is 14.1 µM; in assay [2] it was 18.6 µM; in assay [3], 25.3 µM; in assay [4], 11.8 µM; in [5], 10 µM; in assay [6], 31.4 µM. For the same compound, the TGI stood at 12.7 µM in [7], 24.6 µM in assay [8], 24.8 µM in assay [9] and 17.3 µM in [10].
As for `CC(=O)Nc1ccc2c3c(cc(O)c2c1)N(C(=O)CCCCCCC(=O)N1CC(CCl)c2c1cc(O)c1cc(NC(C)=O)ccc21)CC3CCl` (stereo unspecified), the TGI was found to be 0.0204 µM in assay [1]; 0.475 µM in [2]; 3.59 µM in assay [3]; 0.0695 µM in [5]; 0.346 µM in assay [6]; 0.0185 µM in assay [11]. In addition, the TGI in assay [7] is below 0.0109 µM; in [8] it was 12.4 µM.
In the case of `NC(=O)Cc1nc2c(N)ncnc2n1C1OC(CO)C(O)C1O` (stereo unspecified), the TGI in [1], in assay [2], in assay [3], in assay [4], in assay [5] and in assay [6] was above 100 µM throughout. Also, the TGI in assay [7], in assay [8], in assay [9] and in [10] was above 100 µM in each case.
For the compound `CC1=C(O)C(=O)C2C(=O)C1C1Cc3ccccc3C21` (stereo unspecified), the TGI in assay [1], in assay [2], in [3], in assay [5], in assay [6] and in assay [11] was above 100 µM in each case. Moreover, the TGI in assay [7], in assay [8] and in assay [9] was above 100 µM throughout.
Turning to `CC(C)NC(=O)OCc1c(CO)c2c(n1C)-c1ccccc1CC2`, the TGI is above 100 µM in assay [2]; 54.6 µM in assay [3]; 31.3 µM in assay [5]; 57.6 µM in [6]; 49.6 µM in assay [11]; 71 µM in [7]. For the same compound, the TGI is above 100 µM in assay [8], above 61.4 µM in [9] and above 100 µM in assay [10].
As to `CCOc1ccc(N/C(=C(/C(Cl)=C(/Cl)N2CCCCC2)[N+](=O)[O-])n2nnc3ccccc32)cc1`, the TGI in [1] came to 39.8 µM; in [2], 36.9 µM; in assay [3], 29 µM; in assay [4], 44.5 µM; in [5], 22 µM; in [7], 29.9 µM. In addition, the TGI in [8] amounted to 82 µM; in assay [9] it was 30.8 µM; in [10] it was 38.6 µM.
For `CCCCCCCCCCCCCCCCCCNC(=S)/N=C\C1=C(O)c2ccccc2C1=O`, the TGI in assay [1] stood at 21.2 µM; in [2], 28 µM; in [3], 26.7 µM; in [4], 24.6 µM; in [6], 32 µM; in assay [7], 34.7 µM. Besides, the TGI in assay [8] came to 33.6 µM; in assay [9] it was 18.3 µM; in [10], 33.6 µM.
On to `O=[N+]([O-])C(=C(N1CCOCC1)N1CCOCC1)/C(Cl)=C(\Cl)Br`, for which the TGI in [1] was found to be 58.4 µM; in [2] it was 37.9 µM; in [3] it was 28.9 µM; in assay [4] it was 31.8 µM; in assay [5], 6.71 µM; in assay [6] it was 64 µM. For the same compound, the figures for the TGI in assay [9] and in assay [10] were 39.9 µM and 31.8 µM, respectively.
Turning to `Cn1c(=O)c2c(nc3n2CCCC(=O)N3CC(O)CCl)n(C)c1=O` (stereo unspecified), the TGI in assay [1], in assay [2], in assay [3], in assay [5], in assay [6] and in [11] was above 100 µM each time. Also, the TGI in [7], in assay [8], in assay [9] and in assay [10] was above 100 µM throughout.
For `C=CCN(C(=O)OC(C)(C)C)[C@H](C)C(=O)N[C@@H](C)C(=O)OC`, the TGI in assay [1], in assay [2], in assay [3], in assay [4], in assay [5] and in assay [6] was above 100 µM throughout. The TGI in assay [7], in assay [8] and in assay [9] was above 100 µM throughout.
`COc1ccc(/C(Cl)=C(\C=N/O)c2ccc(OC)c(OC)c2)cc1OC`: the TGI in [1], in [2], in [3], in [5], in [6] and in [11] was above 100 µM in each case. The TGI in [7], in [8], in assay [9] and in assay [10] was above 100 µM in each case.
`Cc1c(N2CCN(C)CC2)nc2ccc(Cl)cc2c1-c1ccccc1`: the TGI in assay [1] was 27.9 µM; in [2], 34.1 µM; in [3], 40.7 µM; in assay [5], 38.6 µM; in assay [6] it was 31.8 µM; in [11] it was 42.3 µM. Besides, the TGI in assay [7] was 28.8 µM; in assay [8], above 100 µM; in assay [9] it was 33.1 µM; in assay [10], 33 µM.
`C/C(CC(O)(/C=N/O)c1ccccc1)=N/O` (stereo unspecified): the TGI in [1], in assay [2], in assay [3], in assay [4], in assay [5] and in assay [6] was above 100 µM each time. In addition, the TGI in assay [7], in assay [8], in assay [9] and in assay [10] was above 100 µM in each case.
As to `N#CC(=N)c1ncn(-c2ccc(N)cc2)c1N`, the TGI in [1], in [2], in [3], in assay [4], in assay [5] and in assay [6] was above 100 µM throughout. Also, the TGI in [7], in assay [8], in [9] and in assay [10] was above 100 µM in each case.
